From patent US8530406B2, “HMG-CoA reductase derived peptide and cosmetic or pharmaceutical composition containing same” (ISP Investments Inc., priority 2008, dated 2013)
No end group written: not given here.

Key:
Format in all cases: cell-based
[1] = system: normal human dermal fibroblasts; assay: Ultrastructural study of caveolae in human fibroblasts; details: 0.5 ppm peptide, 48 hours
Procedure: The goal of this study is to study at the ultrastructural level the caveolae in human dermal fibroblasts.
Normal human dermal fibroblasts in culture are treated with a 1% stock solution at 50 ppm of peptide SEQ ID No. 4 for 48 hours (the medium in the presence of the active ingredient is changed every 24 hours).

HMG-CoA reductase [2] = assay: Expression of HMG-CoA reductase in normal human keratinocytes (immunofluorescence); details: 0.5 ppm peptide, 48 hours
Procedure: The goal of this study is to determine the influence of peptide SEQ ID No. 4 on the expression of HMG-CoA reductase in normal human keratinocytes.
Normal human dermal keratinocytes in culture are treated with a 1% stock solution at 50 ppm of peptide SEQ ID No. 4 for 48 hours (the medium in the presence of the active ingredient is changed every 24 hours). The cells are then washed and fixed in cold methanol for 4 minutes at 4° C. The cells are incubated in the presence of a polyclonal rabbit antibody specific for HMG-CoA reductase (Millipore, Upstate), and then a secondary antibody coupled with a fluorescent dye. The cells are then examined by epifluorescence microscope (Nikon Eclipse E600 microscope).

[3] = system: normal human keratinocytes; assay: Ultrastructural study (transmission electron microscopy) of lamellar bodies in human keratinocytes; details: 0.5 ppm peptide
Procedure: The goal of this study is to study in an ultrastructural manner, in transmission electron microscopy, keratinocytes treated by peptide SEQ ID No. 5 at 0.5 ppm.
Normal human keratinocytes in culture are treated with a 1% stock solution at 50 ppm of peptide SEQ ID No. 5 for 48 hours (the medium in the presence of the active ingredient is changed every 24 hours). The cells are washed in PBS, and then are fixed by Karnosky hypertonic fixation (4% paraformaldehyde, 5% glutaraldehyde in a 0.08M phosphate buffer) 1 hour at ambient temperature and then 24 hours at 4° C. The cells are detached from the support by scraping and centrifuged 5 minutes at 1000 rpm. The supernatant is eliminated and a 1M sodium cacodylate buffer is deposited on the residue. The cells are mixed with 2% agar and then postfixed by osmium tetraoxide for 1 hour. The specimens are then dehydrated by successive passages in a series of alcohol (from 50 to 100%). The cells are then coated in a resin. The polymerization is carried out for approximately 12 hours at 60° C. Semi-thin sections of 0.5 μm are made with an ultramicrotome. The sections are deposited on a heat bonded slide and then colored with toluidine blue. The slides are then dehydrated again and mounted in a suitable medium. After having chosen the optimal study zone, the block is recut to the desired size and ultrathin sections are then made, only sections with a silver-grey color and a suitable size are mounted on the electron microscopy grid labeled with both uranyl acetate and lead citrate, and are examined by transmission electron microscope at 60 or 80 KV.

[4] = system: normal human keratinocytes; assay: Differentiation study of human keratinocytes (pankeratin immunofluorescence); details: 0.5 ppm peptide, 48 hours, epifluorescence
Procedure: The goal of this study is to determine the influence of peptide SEQ ID No. 5 on epidermal differentiation.
Normal human keratinocytes in culture are treated with a 1% stock solution at 50 ppm of peptide SEQ ID No. 4 for 48 hours (the medium in the presence of the active ingredient is changed every 24 hours). The cells are then washed and fixed with cold methanol for 4 minutes at 4° C.

HMG-CoA reductase [5] = assay: Expression of HMG-CoA reductase in skin biopsies (immunolabelling); details: 0.5 ppm peptide applied topically, human skin samples in culture, 24 hours or 48 hours
Procedure: The goal of this study is to determine the influence of peptide SEQ ID No. 5 on the expression of HMG-CoA reductase.
Samples of human skin are placed in culture at the air/liquid interface. A 1% stock solution at 50 ppm of peptide SEQ ID No. 5 is applied topically and then the samples are incubated for 24 hours or 48 hours.
These skin samples are then fixed with formaldehyde and then enclosed in paraffin. Sections of 2 to 3 μm are then made Immunolabelling is carried out after unmasking the specific sites by microwave treatment and then incubation in trypsin Immunolabelling is carried out by using a polyclonal rabbit antibody specific for HMG-CoA reductase (Millipore, Upstate), and then a secondary antibody, coupled with a fluorescent dye. The skin sections are then examined by epifluorescence microscope (Nikon Eclipse E600 microscope).

[6] = 48 hours, transmission electron microscopy

Row | HMG-CoA reductase cytoplasmic fluorescence (HMG-CoA reductase [2]) | HMG-CoA reductase fluorescence in the upper layers of the epidermis versus untreated control (HMG-CoA reductase [5]) | Substance | caveolae versus untreated control cells [1] | Golgi complex development versus control cells [3, 6] | production of lamellar bodies (Odland bodies) [3, 6] | lipid synthesis ([3]; inferred from ultrastructure) | expression of pankeratins [4]
1 | more intense cytoplasmic fluorescence |  | Ala-Gly-Glu-Leu-Ser (AGELS) [SEQ ID No. 4] | significant increase in caveolae |  |  |  | 
2 |  | stronger fluorescence | Ala-Gly-Glu-Leu-Ser-NH2 (AGELS-NH2) [SEQ ID No. 5] |  | substantially more developed | excess production of lamellar bodies | increase in lipid synthesis | increases the expression of pankeratins
